Experimental data as given in ChEMBL document CHEMBL3044993, “Structural confirmation of 15-norlubiminol and 15-norepilubiminol, isolated from Solanum aethiopicum, by chemical conversion from lubimin and epilubimin, and their antifungal activity” (2001).

Key:
Verticillium dahliae = assay: Antifungal activity against Verticillium dahliae assessed as spore germination rate at 100 ppm relative to untreated control; type: functional
[1] = test system: Fusarium oxysporum f. sp. melongenae; assay: Antifungal activity against Fusarium oxysporum f. sp. melongenae assessed as spore germination rate at 100 ppm relative to untreated control; type: functional

C=C(C)[C@@H]1CC[C@]2(C1)[C@H](C)C[C@H](O)C[C@H]2O [15-NOREPILUBIMINOL]
Activity (Verticillium dahliae): 57% | Activity [1]: 113%

C=C(C)[C@@H]1CC[C@]2(C1)[C@H](C)C[C@H](O)C[C@H]2C=O [EPILUBIMIN]
Activity (Verticillium dahliae): 54% | Activity [1]: 30%

C=C(C)[C@@H]1CC[C@]2(C1)[C@H](C)C[C@H](O)C[C@@H]2C=O [LUBIMIN]
Activity (Verticillium dahliae): 42% | Activity [1]: 5%

C=C(C)[C@@H]1CC[C@]2(C1)[C@H](C)C[C@H](O)C[C@@H]2O [15-NORLIBIMINOL]
Activity (Verticillium dahliae): 52% | Activity [1]: 114%
